According to patent US12473262B2, “Aryl hydrocarbon receptor activators” (Oregon State University, priority 2019, dated 2025):

Legend:
[1] = target: aryl hydrocarbon receptor (AhR) (Mus musculus (Mouse), UniProt P30561); experiment: AhR ligand screening: AhRE-luciferase reporter in transfected Hepa1 cells; type: cell-based; conditions: for Fold @ 1 nM: fold change of luciferase expression at 1 nM test compound relative to vehicle (0.1% DMSO); for Fold @ 100 nM: fold change of luciferase expression at 100 nM test compound relative to vehicle (0.1% DMSO); for Fold @ 10 uM: fold change of luciferase expression at 10 uM test compound relative to vehicle (0.1% DMSO); for Fold relative to benchmark @ 100 nM: luciferase expression at 100 nM test compound relative to 100 nM benchmark compound 11-cl-BBQ
aryl hydrocarbon receptor (AhR), sequence (P30561 10-805): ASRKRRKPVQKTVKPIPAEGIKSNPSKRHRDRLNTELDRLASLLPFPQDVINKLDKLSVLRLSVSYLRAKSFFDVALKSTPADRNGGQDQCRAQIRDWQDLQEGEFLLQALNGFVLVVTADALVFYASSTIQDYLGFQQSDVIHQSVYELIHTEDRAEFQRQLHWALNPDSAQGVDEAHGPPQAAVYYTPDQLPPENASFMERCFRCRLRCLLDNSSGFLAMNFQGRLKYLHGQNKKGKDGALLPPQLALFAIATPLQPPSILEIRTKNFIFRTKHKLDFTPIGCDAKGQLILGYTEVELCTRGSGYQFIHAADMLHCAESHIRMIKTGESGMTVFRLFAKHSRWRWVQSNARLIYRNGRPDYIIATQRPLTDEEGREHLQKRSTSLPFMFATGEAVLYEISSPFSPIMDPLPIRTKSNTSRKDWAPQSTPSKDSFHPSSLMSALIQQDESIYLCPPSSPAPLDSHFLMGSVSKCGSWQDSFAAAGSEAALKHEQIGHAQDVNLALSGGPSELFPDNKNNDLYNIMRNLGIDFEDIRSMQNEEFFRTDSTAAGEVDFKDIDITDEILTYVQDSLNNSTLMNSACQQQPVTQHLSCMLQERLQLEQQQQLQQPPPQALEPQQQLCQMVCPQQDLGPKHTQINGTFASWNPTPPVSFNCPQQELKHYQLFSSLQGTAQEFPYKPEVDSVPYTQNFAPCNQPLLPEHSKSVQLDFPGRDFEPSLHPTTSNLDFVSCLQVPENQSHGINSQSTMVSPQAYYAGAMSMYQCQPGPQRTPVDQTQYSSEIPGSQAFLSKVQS
aryl hydrocarbon receptor (AhR), sequence (P53762 whole entry partner): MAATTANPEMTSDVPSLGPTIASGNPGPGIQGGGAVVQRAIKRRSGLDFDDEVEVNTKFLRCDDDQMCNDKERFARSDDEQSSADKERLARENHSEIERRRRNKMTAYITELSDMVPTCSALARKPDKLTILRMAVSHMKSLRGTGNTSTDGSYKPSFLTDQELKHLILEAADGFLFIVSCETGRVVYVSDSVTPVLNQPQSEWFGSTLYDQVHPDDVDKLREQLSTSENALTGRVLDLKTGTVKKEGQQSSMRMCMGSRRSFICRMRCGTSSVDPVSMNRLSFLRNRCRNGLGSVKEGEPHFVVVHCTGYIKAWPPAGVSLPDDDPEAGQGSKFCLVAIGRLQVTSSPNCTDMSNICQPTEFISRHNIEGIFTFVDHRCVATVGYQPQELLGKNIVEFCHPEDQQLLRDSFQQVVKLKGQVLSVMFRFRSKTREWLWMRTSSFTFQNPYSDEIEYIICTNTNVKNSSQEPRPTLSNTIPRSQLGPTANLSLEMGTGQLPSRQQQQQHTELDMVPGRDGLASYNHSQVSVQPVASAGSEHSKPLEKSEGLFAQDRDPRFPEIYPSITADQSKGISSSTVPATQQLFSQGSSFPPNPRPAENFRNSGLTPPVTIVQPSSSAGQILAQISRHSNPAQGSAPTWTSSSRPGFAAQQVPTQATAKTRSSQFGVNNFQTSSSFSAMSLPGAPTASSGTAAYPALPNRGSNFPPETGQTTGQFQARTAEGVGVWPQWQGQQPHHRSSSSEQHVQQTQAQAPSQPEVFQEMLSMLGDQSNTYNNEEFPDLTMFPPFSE
Method in brief: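 Mouse Hepa1 cells transfected with an AhRE-luciferase reporter were plated at 1×10^4 cells/well, grown overnight, then exposed to compounds. Cell lysates were assayed for luciferase by luminometry, with results given as fold induction over 0.1% DMSO vehicle.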

CYP-1A2 = CYP-1A2 (Homo sapiens (Human), UniProt P05177); experiment: CYP panel profile: P450 inhibition, CYP-1A2; type: in vitro ADME; conditions: human liver microsomes; read-out: CYP-1A2 IC50
CYP-1A2, sequence (P05177 whole entry): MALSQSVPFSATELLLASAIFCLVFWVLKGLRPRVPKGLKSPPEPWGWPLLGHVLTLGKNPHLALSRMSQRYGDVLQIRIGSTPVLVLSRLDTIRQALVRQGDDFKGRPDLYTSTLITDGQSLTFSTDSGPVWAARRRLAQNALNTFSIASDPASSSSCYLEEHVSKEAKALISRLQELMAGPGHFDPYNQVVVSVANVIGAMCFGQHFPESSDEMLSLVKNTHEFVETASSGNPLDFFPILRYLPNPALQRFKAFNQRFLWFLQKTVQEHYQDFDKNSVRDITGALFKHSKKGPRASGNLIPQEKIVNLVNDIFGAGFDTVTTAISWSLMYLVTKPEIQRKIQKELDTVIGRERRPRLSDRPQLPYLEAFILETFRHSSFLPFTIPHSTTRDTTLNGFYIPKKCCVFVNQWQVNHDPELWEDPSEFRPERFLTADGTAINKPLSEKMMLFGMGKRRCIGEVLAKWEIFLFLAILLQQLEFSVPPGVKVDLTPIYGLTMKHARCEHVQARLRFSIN
Experimental: (§1) 5. CYP Panel Profile: P450 Inhibition
(§2) From 10 mM stock solutions of test compounds, a dilution plate was prepared diluting serially starting from 5 mM up to 2 μM in Acetonitrile/DMSO or Methanol/DMSO Human liver Microsomes were added at required concentration as per specific CYP isoform in a deep well assay plate (1A2, 2C9, 2D6, 2B6, 2C8, 2C19, and 3A4). Compounds were spiked in all wells from dilution plate at final concentrations starting from 50 μM up to 0.02 μM, except for positive and negative control. Specific substrate were added to all wells and reactions were pre-incubated for 10 min. To start reactions, NADPH was added to all wells at 1 mM final concentration. Assay plate was mixed by vortexing and incubated at 37° C. for […] for 3A4.20 min for (1A2, 2C9, 2B6, 2C8, 2D6) and […] for 2C19. A quencher with chilled acetonitrile suitable internal standard was added. Samples were centrifuged and supernatants were collected and subjected to LC-MS/MS analysis for determination.

CYP-2B6 = CYP-2B6 (Homo sapiens (Human), UniProt P20813); experiment: CYP panel profile: P450 inhibition, CYP-2B6; type: in vitro ADME; conditions: human liver microsomes
Experimental: as §1, §2

CYP-2C19 = CYP-2C19 (Homo sapiens (Human), UniProt P33261); experiment: CYP panel profile: P450 inhibition, CYP-2C19; type: in vitro ADME; conditions: human liver microsomes
CYP-2C19, sequence (P33261 whole entry): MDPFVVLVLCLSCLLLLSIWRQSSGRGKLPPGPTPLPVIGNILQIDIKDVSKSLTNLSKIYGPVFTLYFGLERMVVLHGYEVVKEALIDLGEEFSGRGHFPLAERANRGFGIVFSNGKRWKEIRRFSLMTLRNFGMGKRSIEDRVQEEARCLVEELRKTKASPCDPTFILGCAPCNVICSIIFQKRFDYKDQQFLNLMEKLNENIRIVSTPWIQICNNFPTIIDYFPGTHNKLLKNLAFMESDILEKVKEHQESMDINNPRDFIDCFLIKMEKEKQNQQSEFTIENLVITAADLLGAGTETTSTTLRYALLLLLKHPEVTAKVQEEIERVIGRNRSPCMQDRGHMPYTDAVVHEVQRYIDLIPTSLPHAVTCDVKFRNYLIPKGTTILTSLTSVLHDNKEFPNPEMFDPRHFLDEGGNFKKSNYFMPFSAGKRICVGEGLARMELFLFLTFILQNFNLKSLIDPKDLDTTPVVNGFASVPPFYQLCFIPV
Experimental: as §1, §2

CYP-2D6 = CYP-2D6 (Homo sapiens (Human), UniProt P10635); experiment: CYP panel profile: P450 inhibition, CYP-2D6; type: in vitro ADME; conditions: human liver microsomes
CYP-2D6, sequence (P10635 whole entry): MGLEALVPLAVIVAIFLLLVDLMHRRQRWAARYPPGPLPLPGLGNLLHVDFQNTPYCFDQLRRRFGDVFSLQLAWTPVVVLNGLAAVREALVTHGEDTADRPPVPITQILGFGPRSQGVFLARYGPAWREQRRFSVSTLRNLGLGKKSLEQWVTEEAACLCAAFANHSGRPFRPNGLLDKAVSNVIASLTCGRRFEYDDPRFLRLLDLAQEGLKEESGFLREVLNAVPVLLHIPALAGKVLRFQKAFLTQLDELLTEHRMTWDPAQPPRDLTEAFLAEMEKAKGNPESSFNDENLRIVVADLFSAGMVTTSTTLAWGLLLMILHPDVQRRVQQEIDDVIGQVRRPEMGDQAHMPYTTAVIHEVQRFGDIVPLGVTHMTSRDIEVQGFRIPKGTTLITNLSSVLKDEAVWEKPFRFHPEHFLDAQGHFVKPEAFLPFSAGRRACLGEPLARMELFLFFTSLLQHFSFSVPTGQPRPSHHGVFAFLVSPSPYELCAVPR
Experimental: as §1, §2

CYP-2C9 = CYP-2C9 (Homo sapiens (Human), UniProt P11712); experiment: CYP panel profile: P450 inhibition, CYP-2C9; type: in vitro ADME; conditions: human liver microsomes
CYP-2C9, sequence (P11712 whole entry): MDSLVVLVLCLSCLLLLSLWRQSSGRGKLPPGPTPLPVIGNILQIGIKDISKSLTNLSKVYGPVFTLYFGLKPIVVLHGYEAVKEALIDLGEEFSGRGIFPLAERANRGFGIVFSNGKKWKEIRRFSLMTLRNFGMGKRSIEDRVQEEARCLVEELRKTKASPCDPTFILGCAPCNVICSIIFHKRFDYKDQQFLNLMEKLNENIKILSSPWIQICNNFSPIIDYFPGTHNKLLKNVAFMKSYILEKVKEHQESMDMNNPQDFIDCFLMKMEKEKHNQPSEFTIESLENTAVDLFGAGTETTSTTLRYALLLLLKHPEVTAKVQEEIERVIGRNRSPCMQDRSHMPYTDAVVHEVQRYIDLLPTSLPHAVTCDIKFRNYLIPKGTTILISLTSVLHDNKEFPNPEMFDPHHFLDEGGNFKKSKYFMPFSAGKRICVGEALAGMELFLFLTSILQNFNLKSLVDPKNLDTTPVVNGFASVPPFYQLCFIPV
Experimental: as §1, §2

CYP-3A4 = CYP-3A4 (Homo sapiens (Human), UniProt P08684); experiment: CYP panel profile: P450 inhibition, CYP-3A4; type: in vitro ADME; conditions: human liver microsomes
CYP-3A4, sequence (P08684 whole entry): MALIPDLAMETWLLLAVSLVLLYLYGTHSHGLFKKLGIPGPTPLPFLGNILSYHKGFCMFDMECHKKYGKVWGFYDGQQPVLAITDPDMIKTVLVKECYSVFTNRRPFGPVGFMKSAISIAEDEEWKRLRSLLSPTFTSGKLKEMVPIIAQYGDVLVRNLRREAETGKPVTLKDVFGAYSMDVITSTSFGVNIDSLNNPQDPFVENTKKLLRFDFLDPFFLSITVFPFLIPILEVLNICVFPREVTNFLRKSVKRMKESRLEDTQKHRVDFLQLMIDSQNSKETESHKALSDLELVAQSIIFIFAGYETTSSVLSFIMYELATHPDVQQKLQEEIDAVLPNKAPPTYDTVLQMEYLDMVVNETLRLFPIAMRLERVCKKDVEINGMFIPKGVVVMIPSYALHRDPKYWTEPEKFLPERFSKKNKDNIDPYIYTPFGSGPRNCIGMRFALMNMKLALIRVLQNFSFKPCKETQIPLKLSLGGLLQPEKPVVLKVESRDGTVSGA
Experimental: as §1, §2

CYP-2C8 = CYP-2C8 (Homo sapiens (Human), UniProt P10632); experiment: CYP panel profile: P450 inhibition, CYP-2C8; type: in vitro ADME; conditions: human liver microsomes
CYP-2C8, sequence (P10632 whole entry): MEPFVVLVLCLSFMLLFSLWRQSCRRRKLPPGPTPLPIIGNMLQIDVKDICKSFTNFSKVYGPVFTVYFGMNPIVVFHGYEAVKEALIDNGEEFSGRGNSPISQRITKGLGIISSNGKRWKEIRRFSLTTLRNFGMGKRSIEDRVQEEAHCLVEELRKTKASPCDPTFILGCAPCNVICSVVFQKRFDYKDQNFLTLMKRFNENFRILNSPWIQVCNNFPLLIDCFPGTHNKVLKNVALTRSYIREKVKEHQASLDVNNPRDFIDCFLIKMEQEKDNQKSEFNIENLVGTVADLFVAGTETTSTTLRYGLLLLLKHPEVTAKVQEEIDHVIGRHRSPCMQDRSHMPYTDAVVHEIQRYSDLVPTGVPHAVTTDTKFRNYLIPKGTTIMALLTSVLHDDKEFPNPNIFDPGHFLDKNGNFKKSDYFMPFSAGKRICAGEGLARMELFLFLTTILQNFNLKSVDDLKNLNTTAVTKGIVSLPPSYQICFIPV
Experimental: as §1, §2

[2] = Liver microsomal stability, mouse
[3] = Liver microsomal stability, human
[4] = Liver microsomal stability, rat
Experimental: The assessment of metabolic stability of testing compounds was performed using human, mouse, rat, dog and monkey liver microsomes (20 mg protein/ml). Each reaction mixture contained 42.5 μL of 0.1 M potassium phosphate buffer pH 7.4, containing respective LM protein (final concentration 0.5 mg/ml). 2.5 μL of the compound stock solution was added in it (1 μM final concentration). The reaction was initiated by the addition of 5 μL NADPH solution (final Concentration 1 mM). At different time points (0, 5, 15, and 30 minutes), samples were quenched with 200 μL of cold acetonitrile containing ISTD Propranolol. Samples were centrifuged at 3500 rpm for 20 mM at 4° C. Supernatant was subjected to LC-MS/MS analysis for quantification. Verapamil was used as a positive control.

[5] = mouse, liver microsomes, pH 7.4
[6] = human, liver microsomes, pH 7.4

Compound	Fold @ 1 nM [1]	Fold @ 100 nM [1]	Fold @ 10 uM [1]	Fold relative to benchmark @ 100 nM [1]	IC50 (CYP-1A2)	IC50 (CYP-2B6)	IC50 (CYP-2C19)	IC50 (CYP-2D6)	IC50 (CYP-2C9)	IC50 (CYP-3A4)	IC50 (CYP-2C8)	Rem @ MLM × 30 min ([2]; mouse liver microsomes, 30 min, 1 μM compound, 0.5 mg/ml protein)	half-life at 1 μM [2, 5]	microsomal CLint at 1 μM [2, 5]	Rem @ HLM × 30 min ([3]; human liver microsomes, 30 min, 1 μM compound, 0.5 mg/ml protein)	half-life at 1 μM [3, 6]	microsomal CLint at 1 μM [3, 6]	Rem @ RLM × 30 min ([4]; rat liver microsomes, 30 min, 1 μM compound, 0.5 mg/ml protein)	half-life at 1 μM ([4]; rat, liver microsomes, pH 7.4)	microsomal CLint at 1 μM ([4]; rat, liver microsomes, pH 7.4)
O=C(c1ccc(F)c(F)c1)n1c(-c2cccc3ccccc23)nc2cc(Cl)ccc21 [Compound 530]	2 fold	39 fold	56 fold	0.98 fold	0.5 µM	9.4 µM	3.4 µM	> 50 µM	5 µM	3.7 µM	9.4 µM									
COc1ccc(C(=O)n2c(-c3cccc4ccccc34)nc3cc(Cl)ccc32)cc1 [Compound 535, (5-chloro-2-(naphthalen-1-yl)-1H-benzo[d]imidazol-1-yl)(4-methoxyphenyl)methanone]	1 fold	38 fold	44 fold	0.95 fold	3.9 µM	21.5 µM	2.1 µM	> 50 µM	2.5 µM	0.2 µM	21.8 µM									
COc1ccc(C(=O)n2c(-c3cccc4ccccc34)nc3ccc(Cl)cc32)cc1 [Compound 536, (6-chloro-2-(naphthalen-1-yl)-1H-benzo[d]imidazol-1-yl)(4-methoxyphenyl)methanone]	1 fold	39 fold	41 fold	0.98 fold	0.6 µM	16 µM	2.6 µM	> 50 µM	4.8 µM	1.7 µM	17.1 µM									
O=C(c1ccc(F)cc1)n1c(-c2cccc3ccccc23)nc2cc(Cl)ccc21 [Compound 586]	7 fold	20 fold	18 fold	1.33 fold	1.7 µM	22 µM	7.1 µM	> 50 µM	7.9 µM	1.3 µM	9.1 µM									
O=C(c1ccc(F)cc1)n1c(-c2cccc3ccccc23)nc2ccc(Cl)cc21 [Compound 587]	2 fold	16 fold	19 fold	1.07 fold	0.4 µM	11.6 µM	6.7 µM	26 µM	5.3 µM	6.3 µM	3.2 µM									
O=C(c1c(F)cc(Br)cc1F)n1c(-c2cccc3ccccc23)nc2cc(Cl)ccc21 [Compound 638]	1 fold	12 fold	20 fold	1.17 fold	0.3 µM	11.6 µM	3.4 µM	14.5 µM	5.2 µM	8.1 µM	1.8 µM									
O=C(C1CCCCC1)n1c(-c2cccc3ccccc23)nc2ccc(Cl)cc21 [Compound 640]	1 fold	10 fold	15 fold	1.21 fold	0.6 µM	31.1 µM	2.4 µM	29 µM	4.5 µM	3.8 µM	2.3 µM									
O=C(c1ccc(F)c(F)c1)n1c(-c2ccc(-c3ccccc3)cc2)nc2cc(Cl)ccc21 [Compound 643]	1 fold	1 fold	2 fold	0.11 fold	20.7 µM	> 50 µM	> 50 µM	> 50 µM	9.2 µM	> 50 µM	12.3 µM									
O=C(c1ccc(F)c(F)c1)n1c(-c2ccc(-c3ccccc3)cc2)nc2ccc(Cl)cc21 [Compound 644]	1 fold	1 fold	2 fold	0.11 fold	4.7 µM	> 50 µM	> 50 µM	8.2 µM	2.7 µM	> 50 µM	1.7 µM	71.7%	1.18 h	20 µL/min/mg	69.8%	1.3 h	18 µL/min/mg	36.8%	0.478 h	48 µL/min/mg
O=C(c1ccccc1)n1c(-c2cccc3ccccc23)nc2cc(Cl)c(Cl)cc21 [Compound 693]	2 fold	32 fold	87 fold	1.23 fold	8.6 µM	> 50 µM	24.1 µM	> 50 µM	11.6 µM	2 µM	3.5 µM									
O=C(c1ccccc1)n1c(-c2cccc3ccccc23)nc2cc(OC(F)(F)F)ccc21 [Compound 703]	1 fold	22 fold	23 fold	0.85 fold	0.8 µM	12 µM	0.5 µM	> 50 µM	5.3 µM	10.3 µM	4.2 µM									
COC(=O)c1ccc2c(c1)nc(-c1cccc3ccccc13)n2C(=O)c1ccc(F)c(F)c1 [Compound 848]	1 fold	1 fold	5 fold	0.04 fold	2.6 µM	16.7 µM	1.1 µM	2.9 µM	6.3 µM	13.7 µM	3.5 µM									
COC(=O)c1ccc2nc(-c3cccc4ccccc34)n(C(=O)c3ccc(F)c(F)c3)c2c1 [Compound 849]	1 fold	1 fold	1 fold	0.04 fold	15.1 µM	> 48 µM	1.5 µM	19.3 µM	7.7 µM	> 50 µM	4.1 µM									
